# Patent publication US20090054490A1, “METHODS FOR THE TREATMENT OF GERD WITH MGLUR5 ANTAGONISTS” (priority 2007, published 2009)
# Biological target: T1, human mGlu5a receptor (Homo sapiens, UniProt P41594)
# T1 construct: expressed in transfected cells; host or cells: EBNA cells (transient transfection); cell membrane homogenates
# Test: [3H]MPEP competition binding on membranes of EBNA cells transfected with human mGlu5a receptor
# Settings: [3H]MPEP 2 nM, 1 h at 4° C., read-out: Ki (mGluR5)
# Method: For binding experiments, cDNA encoding human mGlu5a receptor was transiently transfected into EBNA cells using a procedure described by Schlaeger and Christensen [Cytotechnology 15:1-13 (1998)]. Cell membrane homogenates were stored at −80° C. until the day of assay where upon they were thawed and resuspended and polytronised in 15 mM Tris-HCl, 120 mM NaCl, 100 mM KCl, 25 mM CaCl2, 25 mM MgCl2 binding buffer at pH 7.4 to a final assay concentration of 20 […].
# Saturation isotherms were determined by addition of twelve [^3H]MPEP concentrations (0.04-100 nM) to these membranes (in a total volume of 200 μl) for 1 h at 4° C. […] Incubations were performed for 1 h at 4° C.
# At the end of the incubation, membranes were filtered onto unifilter (96-well white microplate with bonded GF/C filter preincubated 1 h in 0.1% PEI in wash buffer, Packard BioScience, Meriden, Conn.) with a Filtermate 96 harvester (Packard BioScience) and washed 3 times with cold 50 mM Tris-HCl, pH 7.4 buffer. Nonspecific binding was measured in the presence of […]. The radioactivity on the filter was counted (3 min) on a Packard Top-count microplate scintillation counter with quenching correction after addition of 45 μl of microscint 40 (Canberra Packard S.A., Zutrich, Switzerland) and shaking for 20 min.
# The inhibition (antagonists) curves were fitted with a four parameter logistic equation giving IC50, and Hill coefficient using an iterative non linear curve fitting software (Xcel fit).
# The Ki value is defined by the following formula: […]
# L is the concentration of radioligand used in the binding experiment and the Kd value of the radioligand is empirically determined for each batch of membranes prepared.
# T1 sequence (P41594 21-1180 isoform P41594-2 limits assumed): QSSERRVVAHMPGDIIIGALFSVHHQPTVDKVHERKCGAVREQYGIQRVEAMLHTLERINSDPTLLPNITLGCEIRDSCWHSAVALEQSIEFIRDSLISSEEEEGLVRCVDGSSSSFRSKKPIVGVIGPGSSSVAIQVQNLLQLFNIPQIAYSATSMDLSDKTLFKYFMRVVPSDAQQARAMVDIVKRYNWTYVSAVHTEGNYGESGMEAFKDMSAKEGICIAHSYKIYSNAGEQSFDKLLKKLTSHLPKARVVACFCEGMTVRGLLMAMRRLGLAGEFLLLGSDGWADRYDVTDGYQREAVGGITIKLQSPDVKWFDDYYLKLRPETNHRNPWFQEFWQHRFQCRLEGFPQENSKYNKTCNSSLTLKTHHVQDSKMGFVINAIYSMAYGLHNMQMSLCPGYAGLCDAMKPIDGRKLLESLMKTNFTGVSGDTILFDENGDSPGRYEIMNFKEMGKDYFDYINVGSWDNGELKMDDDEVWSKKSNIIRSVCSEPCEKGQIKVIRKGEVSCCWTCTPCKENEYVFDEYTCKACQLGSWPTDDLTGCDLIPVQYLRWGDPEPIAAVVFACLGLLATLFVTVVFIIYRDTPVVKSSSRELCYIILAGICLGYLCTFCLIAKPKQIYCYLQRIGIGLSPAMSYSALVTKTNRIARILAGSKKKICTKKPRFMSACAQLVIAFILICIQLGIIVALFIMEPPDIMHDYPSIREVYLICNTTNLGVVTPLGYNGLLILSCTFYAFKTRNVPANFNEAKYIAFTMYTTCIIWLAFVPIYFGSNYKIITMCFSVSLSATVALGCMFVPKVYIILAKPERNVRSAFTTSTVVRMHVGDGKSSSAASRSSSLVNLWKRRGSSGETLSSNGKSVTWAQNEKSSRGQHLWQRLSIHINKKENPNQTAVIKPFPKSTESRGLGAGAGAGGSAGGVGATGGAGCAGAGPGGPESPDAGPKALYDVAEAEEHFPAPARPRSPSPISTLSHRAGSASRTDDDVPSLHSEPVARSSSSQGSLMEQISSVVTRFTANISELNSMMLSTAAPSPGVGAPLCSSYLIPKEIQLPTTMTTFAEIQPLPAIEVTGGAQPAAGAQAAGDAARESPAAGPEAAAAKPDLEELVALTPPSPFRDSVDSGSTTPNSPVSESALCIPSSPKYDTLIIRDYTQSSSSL
row,SMILES,Ki
1,"Cc1nc(C#Cc2ccnc(Cl)c2)c(C)n1-c1ccc(C(F)(F)F)cc1 [compound 13, 2-Chloro-4-[2,5-dimethyl-1-(4-trifluoromethyl-phenyl)-1H-imidazol-4-ylethynyl]-pyridine]",44 nM
2,"Cc1cc(F)ccc1-n1c(C)nc(C#Cc2ccnc(Cl)c2)c1C [compound 5, 2-Chloro-4-[1-(4-fluoro-2-methyl-phenyl)-2,5-dimethyl-1H-imidazol-4-ylethynyl]-pyridine]",50 nM
3,"Cc1nc(C#Cc2ccnc(Cl)c2)c(C)n1-c1cccc(C(F)(F)F)c1 [compound 21, 2-Chloro-4-[2,5-dimethyl-1-(3-trifluoromethyl-phenyl)-1H-imidazol-4-ylethynyl]-pyridine]",55 nM
4,"Cc1nc(C#Cc2ccnc(Cl)c2)c(C)n1-c1cccc(C(F)(F)F)n1 [compound 24, 2-[4-(2-Chloro-pyridin-4-ylethynyl)-2,5-dimethyl-1H-imidazol-1-yl]-6-(trifluoromethyl)-pyridine]",26 nM
5,"COc1ccc(-n2c(C)nc(C#Cc3ccnc(Cl)c3)c2C)cc1 [compound 10, 2-Chloro-4-[1-(4-methoxy-phenyl)-2,5-dimethyl-1H-imidazol-4-ylethynyl]-pyridine]",30 nM
6,"Cc1nc(C#Cc2ccnc(Cl)c2)c(CO)n1-c1ccc(F)cc1 [compound 28, [5-(2-Chloro-pyridin-4-ylethynyl)-3-(4-fluoro-phenyl)-2-methyl-3H-imidazol-4-yl]-methanol]",211 nM
7,"Cc1nc(C#Cc2ccnc(Cl)c2)c(C)n1-c1ccc(F)c(Cl)c1 [compound 22, 2-Chloro-4-[1-(3-chloro-4-fluoro-phenyl)-2,5-dimethyl-1H-imidazol-4-ylethynyl]-pyridine]",31 nM
8,"Cc1nc(C#Cc2ccnc(Cl)c2)c(C(F)F)n1-c1ccc(F)cc1 [compound 27, 2-Chloro-4-[5-difluoromethyl-1-(4-fluoro-phenyl)-2-methyl-1H-imidazol-4-ylethynyl]-pyridine]",42.2 nM
9,"Cc1nc(C#Cc2ccnc(Cl)c2)c(C)n1-c1cccc(Cl)c1F [compound 20, 2-Chloro-4-[1-(3-chloro-2-fluoro-phenyl)-2,5-dimethyl-1H-imidazol-4-ylethynyl]-pyridine]",28 nM
10,"Cc1nc(C#Cc2ccnc(Cl)c2)c(C)n1-c1cccc(OC(F)(F)F)c1 [compound 12, 2-Chloro-4-[2,5-dimethyl-1-(3-trifluoromethoxy-phenyl)-1H-imidazol-4-ylethynyl]-pyridine]",14 nM
11,"Cc1nc(C#Cc2ccnc(Cl)c2)c(C)n1-c1ccc(Cl)cc1 [compound 19, 2-Chloro-4-[1-(4-chloro-phenyl)-2,5-dimethyl-1H-imidazol-4-ylethynyl]-pyridine]",20 nM
12,"Cc1cc(C(F)(F)F)cc(-n2c(C)nc(C#Cc3ccnc(Cl)c3)c2C)n1 [compound 17, 2-[4-(2-Chloro-pyridin-4-ylethynyl)-2,5-dimethyl-imidazol-1-yl]-6-methyl-4-trifluoromethyl-pyridine]",79 nM
13,"Cc1c(C#Cc2ccnc(Cl)c2)nn(C)c1-c1ccc(F)cc1 [compound 26, 2-Chloro-4-[5-(4-fluoro-phenyl)-1,4-dimethyl-1H-pyrazol-3-ylethynyl]-pyridine]",5.9 nM
14,"Cc1cc(-n2c(C)nc(C#Cc3ccnc(Cl)c3)c2C)ccc1OC(F)(F)F [compound 14, 2-Chloro-4-[2,5-dimethyl-1-(3-methyl-4-trifluoromethoxy-phenyl)-1H-imidazol-4-ylethynyl]-pyridine]",5 nM

# The next lines start with the values.
row,Ki,SMILES
1,93 nM,"Cc1cccc(-n2c(C)nc(C#Cc3ccnc(Cl)c3)c2C)n1 [compound 23, 2-[4-(2-Chloro-pyridin-4-ylethynyl)-2,5-dimethyl-1H-imidazol-1-yl]-6-methyl-pyridine]"
2,70 nM,"Cc1ccc(-n2c(C)nc(C#Cc3ccnc(Cl)c3)c2C)nc1 [compound 15, 2-[4-(2-Chloro-pyridin-4-ylethynyl)-2,5-dimethyl-1H-imidazol-1-yl]-5-methyl-pyridine]"
3,86 nM,"Cc1nc(C#Cc2ccnc(Cl)c2)c(C)n1-c1ccc(Cl)nc1 [compound 16, 2-Chloro-5-[4-(2-Chloro-pyridin-4-ylethynyl)-2,5-dimethyl-1H-imidazol-1-yl]-pyridine]"
4,108 nM,"Cc1nc(C#Cc2ccnc(Cl)c2)c(C)n1-c1cnccn1 [compound 18, 2-[4-(2-Chloro-pyridin-4-ylethynyl)-2,5-dimethyl-imidazol-1-yl]-pyrazine]"
5,21 nM,"Cc1ccc(-n2c(C)nc(C#Cc3ccnc(Cl)c3)c2C)cc1 [compound 7, 2-Chloro-4-(2,5-dimethyl-1-p-tolyl-1H-imidazol-4-ylethynyl)-pyridine]"
6,10 nM,"Cc1ccc(-n2c(C)nc(C#Cc3ccnc(Cl)c3)c2C)cc1Cl [compound 8, 2-Chloro-4-[1-(3-chloro-4-methyl-phenyl)-2,5-dimethyl-1H-imidazol-4-ylethynyl]-pyridine]"
7,35 nM,"Cc1cc(-n2c(C)nc(C#Cc3ccnc(Cl)c3)c2C)ccc1F [compound 6, 2-Chloro-4-[1-(4-fluoro-3-methyl-phenyl)-2,5-dimethyl-1H-imidazol-4-ylethynyl]-pyridine]"
